# Columns and labels:
# B16F10 cells [1] = experiment: Cell cycle distribution analysis (PI, flow cytometry), B16F10; type: cell-based, murine; conditions: B16F10, 6 μM, 24 h
# Description: Cell cycle analysis in melanoma cells treated with GC2 was performed by determining DNA content using propidium iodide (PI) staining. PI intercalates into the major groove of double stranded DNA and produces a highly fluorescent adduct that can be excited at 488 nm and with a broad emission centered at 600 nm, see e.g. Krishan A. J. Cell. Biol. 66, 188, 1975. Melanoma cells (20×10^4) were cultured in 25 cm^2 tissue culture flasks for 24 h, followed by a further incubation for indicated time periods with 6 μM GC2. After treatment, adherent cells were trypsinized and a number of viable cells was determined by trypan blue exclusion. […] cells were re-suspended in 200 μl FACS buffer (2% FCS in PBS) and fixed with 600 μl absolute methanol, dropwise added under gentle vortexing, for at least 2 h at −20° C. Fixed cells were washed with FACS buffer, centrifuged for 5 min at 1500 rpm, at 4° C., and incubated for 30 min, in the dark, at room temperature (RT) with 200 μl PI staining solution in 3.8 mM sodium citrate (10 μl RNaze 10 μg/ml previously boiled for 5 min and 1 μl PI 10 mg/ml). The staining solution was removed by centrifugation and the cell pellet was re-suspended in 200 μl FACS buffer. Samples were analyzed for DNA content using a FACScan™ using CellQuest™ software (Becton Dickinson, San Jose, Calif.). […]
# B16F10 cells [2] = experiment: Annexin V/PI double labeling, flow cytometry, B16F10; type: cell-based, murine; conditions: B16F10, 6 μM
# Description: Apoptosis in GC2-treated melanoma cells was detected using Annexin V and PI double labeling assay, see van Engeland, M., et al., Cytometry, 31, 1-9, 1998. Annexin V/PI labeling was applied to both fluorescence microscopy and flow cytometry following the protocol supplied by the manufacturer. Briefly, for fluorescence microscopy analysis adherent cells (approximately 16×10^4) treated with GC2 were washed with annexin V binding buffer, and incubated with Alexa Fluor® 488 Annexin V (5 μl in 1 ml annexin V binding buffer) for 15 min at RT, in the dark, to which 0.2 μg PI was added. Live cells were washed with annexin V binding buffer and examined by microscopy. For flow cytometric analysis, cells treated with GC2 were harvested by trypsinisation and a number of viable cells was counted. 16×10^4 cells were re-suspended in 0.2 ml annexin V binding buffer and treated in the same were adherent cells. Finally, labeled cells were analyzed with a FACScan™ using CellQuest™ software (Becton Dickinson, San Jose, Calif.).
# Cells cultured under normal conditions for 24 h were further treated for 5 h, 8 h or 24 h with 6 μM of GC2, labeled with annexin V and PI and quantitatively analyzed by flow cytometry for viable, apoptotic and necrotic populations (FIG. 7).
# [3] = system: MMP-2 secreted by T11 glioblastoma multiform cells; experiment: MMP analysis by SDS-PAGE gelatin zymography; type: cell-based; conditions: 20 h
# Description: T11 cells were grown in a complete DMEM medium until they reached 80% confluency. The cells were washed using DMEM medium without serum and incubated for 20 h with various concentrations of GC2 shown in preliminary experiments not to affect cell viability. The culture medium was collected, centrifuged at 2000 rpm, for 5 min, to remove the cells in suspension. The culture medium was further concentrated five times by ultrafiltration on centricon membranes (molecular weight cut off 30,000 from Milipore). Three parts of medium containing equal amounts of protein (20 μg) were mixed with one part of Laemmnli buffer without reducing agent. Samples were applied on a gel of 8% polyacrylamide impregnated with 0.5 mg/ml denaturated type I collagen (gelatin) and separated electrophoretically. […]
# To investigate if GC2 treatment interferes with secretion of MMPs a glioblastoma multiform cell line, T11 previously tested for its capacity to secrete MMP-2 was used. Cells were cultured for 20 h in the presence of different concentrations of GC2, established by preliminary experiments to be nontoxic for this cell line, and medium was concentrated and analyzed by Sodium Dodecyl Sulphate PolyAcrylamide Gel Electrophoresis (SDS-PAGE) gelatin zymography. […]
# MelJuSo cells = experiment: Autophagic vesicle detection with GFP-LC3; type: cell-based, human; conditions: MelJuSo transfected with GFP-LC3, 6 μM
# Description: LC3 is a protein recruited to an autophagosome membrane. The recruitment process is essential for autophagy and LC3 is a specific marker of the process, see Kabeya Y., et al., EMBO J. 19, 5720-5728, 2000. […] Cells were transiently transfected with GFP-LC3 plasmid DNA using the liposomal transfection kit Lipofectamine PLUS™ Reagent (Gibco-BRL) as described in Negroiu, G., et al., J. Biol. Chem. 278, 27035-27042, 2003. 24 h after transfection cells were treated with GC2 for the indicated time periods and analyzed by fluorescence microscopy.
# The localization of LC3 (microtubule-associated protein1 light chain 3), which is an established marker for autophagosome membranes, see e.g. Kabeya, Y., et al. EMBO J., 19, 5720-5728, 2000, was examined in cells treated with GC2. LC3 is newly synthetised and recruited to autophagosomal membranes when autophagy is activated and is detected as cup- and ring shaped structures, see e.g. Mizushima, N. et al. Int. J. Biochem. & Cell Biol. 36, 2491-2502, 2004. […] In GC2-treated MNT-1 cells, very few vacuoles were observed by a phase contrast microscopy. The MNT-1 cell line was also the least positive for autophagic marker (data not shown).
smiles,measurement,setting,value
"CC(=O)O.CCCCCCCCCN1[C@@H](CO)[C@@H](O)[C@H](O)[C@@H]1CCCCCCCC [GC2, (2S,3R,4R,5S)-3,4-dihydroxy-N-nonyl-5-octyl-2 hydroxymethylpyrrolidinium acetate]",number of cells in G2 phase,B16F10 cells [1]; untreated 21.68%,16.96%
same,proportion of surviving cells in G0/G1 phase,B16F10 cells [1]; untreated 45.42,53.74%
same,"number of viable, apoptotic or necrotic cells",B16F10 cells [2]; 5 h,did not change significantly
same,increase of apoptotic cells versus control (factor),B16F10 cells [2]; 8 h,1.7
same,increase of necrotic fraction versus control,B16F10 cells [2]; 8 h,approximately doubled
same,apoptotic cells,"B16F10 cells [2]; 8 h, control 1.95%",3.44%
same,necrotic fraction,"B16F10 cells [2]; 8 h, control 4.28%",8.78%
same,increase of apoptotic cells versus control (factor),B16F10 cells [2]; 24 h,2.9
same,increase of necrotic fraction versus control (factor),B16F10 cells [2]; 24 h,4.4
same,apoptotic cells,"B16F10 cells [2]; 24 h, control 2.28%",6.72%
same,necrotic fraction,"B16F10 cells [2]; 24 h, control 4.95%",22.16%
same,intensity of the MMP-2 band,"[3]; 0.65 μM, 1.25 μM, 2.5 μM and 5 μM",decreasing in a concentration dependent manner
same,MMP-2 secretion,[3]; 5 μM,total inhibition
same,GFP-LC3 distribution (autophagic marker),MelJuSo cells,punctate pattern of bright fluorescence
